This is an account of results in ChEMBL document CHEMBL5050859, “Gpx4 inhibitors, pharmaceutical compositions thereof, and their use for treating gpx4-mediated diseases” (2021).

pEC50: −log10 of the molar value. A value given as a limit tells only on which side of the number the result lay.

In this assay the test system is Huh-7. Kind of assay: Antiproliferative activity against human Huh-7 cells after 24 hrs by Cell Titer Glo assay. The note with it: Huh-7, 24 h. It is filed as functional, cell-based.

Compound `COc1ccc(N(C(=O)CCl)C(C(=O)NCc2ccccc2)c2cccs2)cc1Cl` (configuration not stated) had a pEC50 of 6.30.

In turn, `C#CC(=O)N(c1ccc(OC)cc1OC)C(C(=O)NCC(=O)OCC)c1cccs1` (configuration not stated) showed a negative logarithm of the EC50 (pEC50) of 6.30.

As for `Nc1cccc(N(C(=O)CCl)C(C(=O)NCCc2ccccc2)c2cccs2)c1` (configuration not stated), the pEC50 is 5.70.

With `C=CC(=O)N(Cc1cccc(O)c1)C1(C(=O)NCc2ccccc2)CCOCC1`, the negative logarithm of the EC50 (pEC50) is below 5.00.

In the case of `COc1ccc(N(C(=O)CCl)C2(C(=O)NCc3ccccc3)CCOCC2)cc1Cl`, the negative-log EC50 (pEC50) was 7.00.

The compound `C#CC(=O)N(c1ccc2c(cnn2C)c1)C1(C(=O)NCc2ccccc2)CCCC(C(=O)OC)C1` (configuration not stated) had a pEC50 of at least 7.00.

In the case of `C#CC(=O)N(c1ccc2c(cnn2C)c1)C1(C(=O)NCc2ccccc2)CCCOC1` (configuration not stated), the pEC50 was at least 7.00.

Take `O=C(NCCc1ccccc1)C(c1ccc([N+](=O)[O-])cc1)N(Cc1ccccc1)C(=O)CCl` (configuration not stated): the negative logarithm of the EC50 (pEC50) is 5.70.

Regarding `C#CC(=O)N(c1cccc(Cl)c1)C1(C(=O)NCC(=O)NCc2ccccc2O)CCOCC1`, the pEC50 is 7.00.

`Cn1ncc2cc(N(C(=O)CO)C3(C(=O)NCc4ccccc4)CCOCC3)ccc21` gave a pEC50 below 5.00.

For `C#CC(=O)N(c1cccc(Cl)c1)C1(C(=O)NCC(=O)Nc2ccccc2)CCOCC1`, the negative logarithm of the EC50 (pEC50) was 7.00.

`C=C(F)C(=O)N(c1ccc(OC)c(Cl)c1)C(C(=O)NCc1ccccc1)c1cccc(N)c1` (configuration not stated) showed a pEC50 below 5.00.

Turning to `O=C(NCCc1ccccc1)C(c1ccc([N+](=O)[O-])cc1)N(C(=O)CCl)c1cccc(Cl)c1` (configuration not stated), the negative logarithm of the EC50 (pEC50) was 7.00.

Consider `C#CC(=O)N(c1cccc(Cl)c1)C1(C(=O)NCC(=O)NCc2ccccc2Cl)CCOCC1`, for which the negative-log EC50 (pEC50) is 7.00.

`O=C(CCl)N(c1cccc2nsnc12)C1(C(=O)NCc2ccccc2)CCOCC1` showed a pEC50 of 7.00.

For the compound `C#CC(=O)N(c1cccc(Cl)c1)C1(C(=O)NCC(=O)N2CCCC(CO)C2)CCOCC1` (configuration not stated), the pEC50 was 5.70.

In turn, `COc1cccc(N(C(=O)CCl)C(C(=O)NCCc2ccccc2)c2ccc([N+](=O)[O-])cc2)c1` (configuration not stated) gave a pEC50 of 7.00.

On to `Nc1ccc(N(C(=O)CCl)C(C(=O)NCCc2ccccc2)c2cccs2)cc1` (configuration not stated), for which the negative-log EC50 (pEC50) is 5.70.

Compound `C#CC(=O)N(c1cccc(Cl)c1)C(C(=O)NCC1CCOCC1)c1ccccc1` (configuration not stated) had a pEC50 of at least 7.00.

On to `C=CC(=O)N(c1cccc(Cl)c1)C1(C(=O)NCc2ccccc2)CCOCC1`, for which the pEC50 was below 5.00.

Take `C#CC(=O)N(c1cccc(Cl)c1)C(C(=O)NCC1COC1)c1ccccc1` (configuration not stated): the pEC50 was at least 7.00.

As for `COc1ccc(N(C(=O)CCl)C2(C(=O)NCCc3ccccc3)CCC(F)(F)CC2)cc1Cl`, the pEC50 was 7.00.

Take `COC(=O)c1cccc(N(C(=O)CCl)C(C(=O)NCCc2ccccc2)c2ccc([N+](=O)[O-])cc2)c1` (configuration not stated): the pEC50 is 7.00.

For `COc1ccc(N(C(=O)CCl)C(C(=O)NCCc2ccccc2)c2ccc(N)cc2)cc1Cl` (configuration not stated), the pEC50 is 7.00.

In turn, `C#CC(=O)N(c1cccc(Cl)c1)C1(C(=O)NCc2ccccc2)CCC(=O)CC1` showed a pEC50 of at least 7.00.

The compound `O=C(CCl)N(c1cccc2nsnc12)C1(C(=O)NCCc2ccccc2)CCOCC1` showed a negative-log EC50 (pEC50) of 6.30.

For the compound `C#CC(=O)N(c1cccc(Cl)c1)C1(C(=O)NCC(=O)NCc2ccccc2C#N)CCOCC1`, the pEC50 was 7.00.

`C=C(F)C(=O)N(c1ccc2c(cnn2C)c1)C1(C(=O)NCc2ccccc2)CCOCC1` had a pEC50 below 5.00.

`Cn1ncc2cc(N(C(=O)C3CO3)C3(C(=O)NCc4ccccc4)CCOCC3)ccc21` (configuration not stated) had a pEC50 below 5.00.

For `C#CC(=O)N(c1cccc(Cl)c1)C1(C(=O)NCC(=O)OCC)CCOCC1`, the pEC50 was 6.30.

Consider `CC(=O)Nc1cccc(N(C(=O)CCl)C(C(=O)NCCc2ccccc2)c2ccc([N+](=O)[O-])cc2)c1` (configuration not stated), for which the negative logarithm of the EC50 (pEC50) is 5.70.

For `CC(C)(C)NC(=O)C(c1ccc([N+](=O)[O-])cc1)N(C(=O)CCl)c1ccc(Cl)cc1` (configuration not stated), the pEC50 was 5.70.

`CN(C)C/C=C/C(=O)N(c1ccc2c(cnn2C)c1)C1(C(=O)NCc2ccccc2)CCOCC1` gave a pEC50 below 5.00.

Turning to `O=C(NCCc1ccccc1)C(c1ccc([N+](=O)[O-])cc1)N(C(=O)CCl)c1cccc(O)c1` (configuration not stated), the pEC50 was 5.70.

`CC(Cl)C(=O)N(c1ccc2c(cnn2C)c1)C1(C(=O)NCc2ccccc2)CCOCC1` (configuration not stated) gave a pEC50 below 5.00.

In turn, `O=C(CCl)N(c1ccc2c(c1)OCO2)C1(C(=O)NCc2ccccc2)CCOCC1` gave a negative-log EC50 (pEC50) of 5.70.

In turn, `COc1ccc(N(C(=O)CCl)C(C(=O)NCCc2ccccc2)c2cccc(N)c2)cc1Cl` (configuration not stated) showed a negative logarithm of the EC50 (pEC50) of 7.00.

The compound `COc1ccc(N(C(=O)CCl)C(C(=O)NCCc2ccccc2)c2ccc(NC(=O)CO)cc2)cc1Cl` (configuration not stated) had a pEC50 of 6.30.

For `CC(C)N(C(=O)CCl)C(C(=O)NCCc1ccccc1)c1cccs1` (configuration not stated), the pEC50 was below 5.00.

On to `Cn1ncc2cc(N(C(=O)C(F)F)C3(C(=O)NCc4ccccc4)CCOCC3)ccc21`, for which the negative logarithm of the EC50 (pEC50) was below 5.00.

For the compound `C#CC(=O)N(c1cccc(Cl)c1)C(C(=O)NCC1CC1)c1ccccc1` (configuration not stated), the pEC50 is at least 7.00.

`C#CC(=O)N(c1cccc(Cl)c1)C1(C(=O)NCC(=O)NCc2ccccc2)CCOCC1` showed a negative logarithm of the EC50 (pEC50) of 7.00.

`O=C(NCCc1ccccc1)C(c1ccc([N+](=O)[O-])cc1)N(Cc1cccs1)C(=O)CCl` (configuration not stated): the negative logarithm of the EC50 (pEC50) was 5.70.

As for `C=CC(=O)N(c1ccc2c(cnn2C)c1)C1(C(=O)NCc2ccccc2)CCOCC1`, the pEC50 was below 5.00.

In turn, `C#CC(=O)N(c1cccc(Cl)c1)C1(C(=O)NCC(=O)NCCO)CCOCC1` showed a negative logarithm of the EC50 (pEC50) of 5.70.

Regarding `C=CC(=O)N(C1CCC1)C1(C(=O)NCc2ccccc2)CCOCC1`, the pEC50 is below 5.00.

Regarding `COc1ccc(N(C(=O)CCl)C2(C(=O)NCc3ccccc3)CCC(F)(F)CC2)cc1Cl`, the negative-log EC50 (pEC50) was at least 7.00.

The compound `C[Si](C)(C)C#CC(=O)N(c1cccc(Cl)c1)C1(C(=O)NCc2cccc(Cl)c2)CCOCC1` showed a pEC50 of at least 7.00.

`C=CC(=O)N(CCc1ccccc1)C1(C(=O)NCc2ccccc2)CCOCC1` showed a negative-log EC50 (pEC50) below 5.00.

`C#CC(=O)N(c1cccc(Cl)c1)C(C(=O)NCc1ccccc1C#N)c1ccccc1` (configuration not stated): the pEC50 is at least 7.00.

The compound `Cn1ncc2cc(N(C(=O)CCl)C3(C(=O)NCCc4ccccc4)CCOCC3)ccc21` gave a pEC50 of 6.30.

In turn, `COc1ccc(N(C(=O)CCl)C2(C(=O)NCCc3ccccc3)CCOCC2)cc1Cl` showed a pEC50 of at least 7.00.

As for `COc1ccc(N(C(=O)CCl)C(C(=O)NC(C)(C)C)c2cccs2)cc1Cl` (configuration not stated), the negative-log EC50 (pEC50) is 6.30.

In turn, `CC(=O)N(c1ccc2c(cnn2C)c1)C1(C(=O)NCc2ccccc2)CCCOC1` (configuration not stated) had a pEC50 below 5.00.

`C#CC(=O)N(c1cccc(Cl)c1)C1(C(=O)NCc2cccc(Cl)c2)CCOCC1` showed a pEC50 of at least 7.00.

For the compound `Nc1ccc(C(C(=O)NCCc2ccccc2)N(C(=O)CCl)c2cccc(Cl)c2)cc1` (configuration not stated), the pEC50 was 6.30.

Turning to `C#CC(=O)N(c1cccc(Cl)c1)C1(C(=O)NCC(=O)N2CCCC(O)C2)CCOCC1` (configuration not stated), the pEC50 was 5.70.

`Cn1ncc2cc(N(C(=O)CCl)C3(C(=O)NCc4ccccc4)CCOCC3)ccc21` showed a pEC50 of 6.30.

The compound `COc1ccc(N(C(=O)CCl)C(C)C(=O)NCCc2ccccc2)cc1Cl` (configuration not stated) had a negative logarithm of the EC50 (pEC50) of 6.30.

In turn, `C#CC(=O)N(c1cccc(Cl)c1)C1(C(=O)NCC(=O)N2CCCC(C(=O)OC)C2)CCOCC1` (configuration not stated) gave a pEC50 of 7.00.

The compound `C=CC(=O)N(c1ccc(OC)c(Cl)c1)C(C(=O)NCc1ccccc1)c1cccc(N)c1` (configuration not stated) gave a negative-log EC50 (pEC50) below 5.00.

Compound `C#CC(=O)N(c1cccc(Cl)c1)C1(C(=O)NCC(=O)O)CCOCC1` showed a pEC50 below 5.00.
